Common to all, as to assay type: cell-based, human
For one test, the system named is GRP78 transcript. The test can be described thus: Quantification of GRP78 expression in endothelial cells by real time RT-PCR. As to conditions: for GRP78 expression: data not shown. How it is done: The transductions were performed according to the manufacturer's protocol. Briefly, 1.6×10^4 endothelial cells were seeded into 96-well plate and incubated for about 20 hours at 37° C. in a 5% CO2 incubator. Cells were infected with lentiviral particles at an MOI of 20 in the presence of 8 μg/ml polybrene (Sigma-Aldrich) overnight. The transduced cells were incubated in fresh M199 medium for 4 more days. Puromycin at 0.2 μg/ml was added to select for puromycin-resistant cell pools, which usually took approximately 10 days of incubating at 37° C. in 5% CO^2. The puromycin-resistant cells were passaged until an appropriate amount of cells was obtained for endocytosis or damage assays as above. Reduction of GRP78 expression was confirmed by using real time RT-PCR (see below).
For quantification of GRP78 expression in endothelial or CHO cells, real time RT-PCR was carried out using a Power SYBR Green Cells-to-CT kit (Applied Biosystems) to extract RNA from 2×10^4 cells. Primers to amplify GRP78 from endothelial cells and CHO cells were 5′-[…]-3′ (SEQ ID NO: 3) and 5′-[…]-3′ (SEQ ID NO: 4). Primers 5′-ACCATCTTCCAGGAGCGAG-3′ (SEQ ID NO: 5) and 5′-TAAGCAGTTGGTGGTGCAG-3′ (SEQ ID NO: 6) were used to amplify the housekeeping gene GAPDH, which was used as a control.
To study the effect of acidosis, endothelial cells exposed to different pHs, ranging from 6.8 to 7.4, were grown in MEM buffered with HEPES for 5 hours in the presence or absence of phenanthroline. Next, endothelial cells were washed twice with cold PBS, and GRP78 total expression was quantified by real-time RT-PCR. […] To study the effect of hyperosmolarity and statins on GRP78 expression, endothelial cells in MEM were incubated with 1, 4, or 8 mg/ml mannitol or 5, 20, or 40 μg/ml lovastatin for 20 hours. […] GRP78 expression, endocytosis, and damage assays were conducted as above.
Background: In qPCR the cycle at which signal appears reflects the starting amount.

The test system of test [1] is R. oryzae germlings on endothelial cells. The experiment in a line: Differential fluorescence assay of adherence and endocytosis of R. oryzae germlings by endothelial cells. The conditions noted are these: for Reduction of endothelial cell endocytosis of R. oryzae: phenanthroline 60 μM for 16 hours, cytochalasin D 200 nM. On the procedure:
The number of organisms endocytosed by endothelial cells or CHO cells was determined using a modification of a previously described differential fluorescence assay (Ibrahim et al., Infect Immun. 63(11):4368-4374 (1995)). Briefly, 12-mm glass coverslips in a 24-well cell culture plate were coated with fibronectin for at least 4 hours and seeded with endothelial or CHO cells until confluency. After washing twice with prewarmed HBSS, the cells were then infected with 10^5 cells of R. oryzae in RPMI 1640 medium that had been germinated for 1 hour. Following incubation for 3 hours, the cells were fixed in 3% paraformaldehyde and were stained for 1 hour with 1% Uvitex (a gift from Jay Isharani, Ciba-Geigy, Greensboro, N.C., USA), which specifically binds to the chitin of the fungal cell wall. After washing 3 times with PBS, the coverslips were mounted on a glass slide with a drop of ProLong Gold antifade reagent and sealed with nail polish. The total number of cell-associated organisms (i.e., germlings adhering to monolayer) was determined by phase-contrast microscopy. The same field was examined by epifluorescence microscopy, and the number of uninternalized germlings (which were brightly fluorescent) was determined. The number of endocytosed organisms was calculated by subtracting the number of fluorescent organisms from the total number of visible organisms. At least 400 organisms were counted in 20-40 different fields on each slide. Two slides per arm were used for each experiment, and the experiment was performed in triplicate on different days. […]
To determine the effects of chelating endothelial cell iron on interactions with R. oryzae, endothelial cells were incubated with different concentrations of phenanthroline for 16 hours. To prevent chelation of the radioisotope, ^51Cr was added to endothelial cells 24 hours prior to the addition of phenanthroline (Fratti et al., Infect Immun. 66(1):191-196 (1998)). To confirm that the effects of phenanthroline on R. oryzae-induced endocytosis by and damage of endothelial cells were due to chelation of endothelial cell iron, exogenous iron in the form of hemin was added to endothelial cells at a final concentration of 20 μM, 2 hours before phenanthroline (Fratti et al., supra). As a positive control for prevention of endocytosis, the microfilament disruptant cytochalasin D (Sigma-Aldrich) was added at a concentration of 200 nM simultaneously with R. oryzae germlings, and endocytosis was determined as above (Ibrahim et al., Infect Immun. 63(11):4368-4374 (1995)). […]

Test [2] shares this test system. The test can be described thus: 51Cr release assay of R. oryzae-induced endothelial cell damage. How it is done: R. oryzae-induced endothelial or CHO cell damage was quantified by using a chromium (^51Cr) release assay (Ibrahim et al., J Infect Dis. 198(7):1083-1090 (2008)). Briefly, endothelial cells or CHO cells grown in 96-well tissue culture plates containing detachable wells were incubated with 1 μCi per well of Na2^51CrO4 (ICN) in M-199 medium (for endothelial cells) or Alpha minimum Eagle's medium (for CHO cells) for 16 hours.
On the day of the experiment, the unincorporated ^51Cr was aspirated, and the wells were washed twice with warmed HBSS (Irvine Scientific). Cells were infected with fungal germlings (1.5×10^5 germinated for 1 hour) suspended in 150 μl RPMI 1640 medium (Irvine Scientific) supplemented with glutamine. Spontaneous ^51Cr release was determined by incubating endothelial or CHO cells in RPMI 1640 medium supplemented with glutamine without R. oryzae. […] The amount of ^51Cr in the aspirate and the detached well was determined by gamma counting. […] After the data were corrected for variations in the amount of tracer incorporated in each well, the percentage of specific endothelial cell release of ^51Cr was calculated by the following formula: [(experimental release×2)−(spontaneous release×2)]/[total incorporation−(spontaneous release×2)]. […]

A further test deals with GRP78. The experiment in a line: Cell surface expression of GRP78 on endothelial cells by FACS. As to conditions: high iron levels (0, 15, or 50 μM FeCl3 tested); flow cytometry. How it is done: Cell surface expression of GRP78 on endothelial cells exposed to varying concentrations of FeCl3 was quantified using FACS analysis. Briefly, endothelial cells grown in 25-cm flasks were dissociated using 1.5 ml enzyme-free dissociation buffer (Invitrogen). Cells were blocked with 50% goat serum, then stained with monoclonal anti-GRP78 Ab (BD Biosciences) at 1:100 for 1 hour. Endothelial cells were counterstained with ALEXA FLUOR 488-labeled anti-mouse IgG at 1:100 for 1 hour. Endothelial cells exposed to a similar concentration of FeCl3 or glucose and stained with an isotype matching control IgG (BD Biosciences) were used as negative control. A FACSCaliber (BD) instrument equipped with an argon laser emitting at 488 nm was used for flow cytometric analysis. Fluorescence data were collected with logarithmic amplifiers. The population percent fluorescence of 5×10^3 events was calculated using CellQuest software (BD).
On the technique in general: In flow cytometry, cells or beads pass a laser one at a time.

Setting [3] is: 15 or 50 μM FeCl3, vs no exogenous FeCl3.

We go through six molecules from patent publication US9259467B2, “Mammalian receptors as targets for antibody and active vaccination therapy against mold infections” (Los Angeles Biomedical Research Institute at Harbor-UCLA …, priority 2009, dated 2016).

As to `CC[C@H](C)C(=O)O[C@H]1C[C@@H](C)C=C2C=C[C@H](C)[C@H](CC[C@@H]3C[C@@H](O)CC(=O)O3)[C@H]21` [lovastatin], the GRP78 expression entry in the test on GRP78 transcript (lovastatin 5, 20, or 40 μg/ml for 20 hours) is listed as “No evidence of alterations in expression”.

For the molecule `OC[C@@H](O)[C@@H](O)[C@H](O)[C@H](O)CO` [mannitol], the GRP78 expression entry in the test on GRP78 transcript (mannitol 1, 4, and 8 mg/ml for 20 hours) is “No change in GRP78 expression”.

Consider hemin [exogenous iron], for which the “Effect on the inhibition of endocytosis caused by the iron chelator phenanthroline” value in test [1] (hemin 20 μM added 2 hours before phenanthroline) is given as “completely reversed the inhibition of endocytosis”.

As to `c1cnc2c(c1)ccc1cccnc12` [phenanthroline], in test [2] (varying concentrations of phenanthroline for 16 h, removed before assay), the “R. oryzae-induced endothelial cell damage” value was “prevented R. oryzae-induced endothelial cell damage in a concentration-dependent manner”. Further, the “Reduction of endothelial cell endocytosis of R. oryzae” value in test [1] is “approximately 70%”. Moreover, the “Endothelial cell GRP78 expression in the setting of acidosis” value in the test on GRP78 transcript (pH 6.8 to 7.4, 5 hours, with phenanthroline) was “reversed GRP78 expression back to normal levels”.

As for `C=C1[C@@H](C)[C@H]2[C@H](Cc3ccccc3)NC(=O)[C@]23[C@H](OC(C)=O)/C=C/[C@@](C)(O)C(=O)[C@@H](C)C/C=C/[C@H]3[C@@H]1O` [cytochalasin D], the “Reduction of endothelial cell endocytosis of R. oryzae” value in test [1] is recorded as “approximately 70%”.

Consider `[Cl][Fe]([Cl])[Cl]` [FeCl3], for which the “Enhancement of R. oryzae-induced endothelial cell damage” value in test [2] (setting [3]) was found to be 80%. In addition, the “Increase of surface expression of GRP78 protein” value in the test with GRP78 is 150%. Moreover, in test [1] (setting [3]), the “Enhancement of R. oryzae-induced endocytosis” value was determined as 80%. For the same molecule, the “Increase in endothelial cell GRP78 expression” value in the test with GRP78 transcript (FeCl3 at iron concentrations of DKA sera, 5 hours, vs no iron) is reported as no more than 12 fold.
